Source: patent publication US11660339B2, “Methods of treating cancer using compositions of antibodies and carrier proteins with antibody pretreatment” (Mayo Foundation for Medical Education and Research, priority 2015, dated 2023)

Tested on: A375 human melanoma cells
Assay: A375 human melanoma xenograft in athymic nude mice: tumor volume and survival
Assay type: in vivo
Excerpt: Data is represented as tumor volume in mm^3.
Survival was again assessed at day 40.

**Q.** Which “therapeutic effect in the experiment (in words)” value (12 mg/kg BEV alone, 1.2 mg/kg BEV pretreatment before AB160) does the source give for bevacizumab here?
**A.** The value was “not therapeutic”.

**Q.** And the “Percent Alive on day 15” value (day 15 post treatment, 12 mg/kg BEV, 30 mg/kg ABX, AB160, or 1.2 mg/kg BEV 24 hr before AB160)?
**A.** The value was 0%.

**Q.** What about the median survival (survival assessed at day 40) of the same substance?
**A.** Its median survival is 7 days.
